Measured values: the Deep4Chem optical property database
Where “and” joins values, the source holds several entries; their conditions need not be identical. Equal values may be shown once.

Assay: photoluminescence quantum yield (fraction); solvent given as SMILES
[1] = in O=P(c1ccccc1)(c1ccccc1)c1ccccc1Oc1ccccc1P(=O)(c1ccccc1)c1ccccc1

CC1(C)c2cc(/C=C/c3nc(/C=C/c4ccc5c(c4)C(C)(C)c4cc(N(c6ccccc6)c6ccc7ccccc7c6)ccc4-5)nc(/C=C/c4ccc5c(c4)C(C)(C)c4cc(N(c6ccccc6)c6ccc7ccccc7c6)ccc4-5)n3)ccc2-c2ccc(N(c3ccccc3)c3ccc4ccccc4c3)cc21
photoluminescence quantum yield (in Cc1ccccc1): 0.25

c1ccc(C2c3ccccc3-c3ccccc32)cc1
photoluminescence quantum yield (in CCO): 0.19

Cc1cc(-c2ccccc2C)cc(C)[o+]1
photoluminescence quantum yield (in CC#N): 0.1
photoluminescence quantum yield (in ClCCl): 0.05

FC(F)(F)C(F)(F)C(F)(F)c1nc2c(-c3ccsc3)cc3c4cc(-c5ccsc5)c5nc(C(F)(F)C(F)(F)C(F)(F)F)nc6c(-c7ccsc7)cc(c7cc(-c8ccsc8)c(n1)c2c37)c4c56
photoluminescence quantum yield (in C1CCOC1): 0.62

CN(C)c1ccc(/C=C/c2ncccn2)cc1
photoluminescence quantum yield (in ClCCl): 0.01

Cc1cc(C)c(C2=C3C=C(/C=C/C(=O)OCc4ccccc4)C=[N+]3[B-](F)(F)n3cc(/C=C/C(=O)OCc4ccccc4)cc32)c(C)c1
photoluminescence quantum yield (in ClCCl): 0.35

Cc1ccc(-c2nc3c([nH]2)C2=CC(=O)S[C@]2(C)[C@@]2(C)SC(=O)C=C32)cc1
photoluminescence quantum yield (in CC#N): 0.14

CN(C)c1ccc(-c2cc(-c3ccc(C#N)cc3)nn2C)cc1
photoluminescence quantum yield (in ClCCl): 0.21

O=C1c2ccccc2-c2ccccc21
photoluminescence quantum yield (in C1CCCCC1): 0.0004
photoluminescence quantum yield (in CC#N): 0.027
photoluminescence quantum yield (in CCO): 0.0009
photoluminescence quantum yield (in c1ccccc1): 0.0078

CC(C)(C)NC(=O)c1ccc(F)c2ccc3c4ccccc4c4ccccc4c3c12
photoluminescence quantum yield (in ClCCl): 0.04

O=c1oc2cc3ccccc3cc2nc1-c1ccccc1
photoluminescence quantum yield (in CC#N): 0.003
photoluminescence quantum yield (in CCCCCC): 0.003
photoluminescence quantum yield (in CO): 0.003
photoluminescence quantum yield (in c1ccccc1): 0.003 and 0.002

CCCCCCCCOc1cc(/C=C/c2ccncc2)c(OCCCCCCCC)cc1/C=C/c1ccncc1
photoluminescence quantum yield (in ClCCl): 0.634

COc1ccc(/C=C/C(F)(F)F)c(N)c1
photoluminescence quantum yield (in C1CCOC1): 0.32

CCCN1/C(=C/C=C(/C=C/C2=[N+](CCC)c3ccccc3C2(C)C)c2cc[n+](C)cc2)C(C)(C)c2ccccc21
photoluminescence quantum yield (in CO): 0.14
photoluminescence quantum yield (in CS(C)=O): 0.12
photoluminescence quantum yield (in O): 0.02

CSc1ccc2c(c1)N(CCCN(C)C)c1ccccc1S2
photoluminescence quantum yield (in CC#N): 0.003
photoluminescence quantum yield (in CO): 0.003
photoluminescence quantum yield (in O): 0.003

COc1ccc(C2=N/C(=C\c3ccc(C#N)cc3)C(=O)N2)cc1OC
photoluminescence quantum yield (in C1COCCO1): 0.189

N#Cc1nc(N(Cc2ccc(Cl)cc2)Cc2ccc(Cl)cc2)c(C#N)nc1N(Cc1ccc(Cl)cc1)Cc1ccc(Cl)cc1
photoluminescence quantum yield (in ClC(Cl)Cl): 0.71

COC(=O)c1cc(=O)n(C)c2cc(-c3ccccc3OC)sc12
photoluminescence quantum yield (in CC#N): 0.61
photoluminescence quantum yield (in ClCCl): 0.51

N#Cc1cc(C#N)c(-n2c3ccccc3c3cc(-c4cccc5c4c4ccccc4n5-c4cc(-n5c6ccccc6c6ccccc65)c(C#N)cc4C#N)ccc32)cc1-n1c2ccccc2c2ccccc21
photoluminescence quantum yield [1]: 0.66

N#Cc1cnc(-c2c3ccccc3cc3ccccc23)nc1
photoluminescence quantum yield (in CCO): 0.07
photoluminescence quantum yield (in ClCCl): 0.07

CCC1=C(C)C(=O)n2c1cc1c(C)c(CC(=O)OC)c(C)n1c2=O
photoluminescence quantum yield (in CO): 0.94
photoluminescence quantum yield (in CS(C)=O): 1
photoluminescence quantum yield (in ClC(Cl)Cl): 1
photoluminescence quantum yield (in c1ccccc1): 1

Fc1ccc2sc3nc(-c4ccccc4)sc3c2c1
photoluminescence quantum yield (in CS(C)=O): 0.91

CCOC(=O)c1cc(C(=O)OCC)c2ccccc2n1
photoluminescence quantum yield (in CCO): 0.006

CN(C)c1ccc(/C=C/c2ccccn2)cc1
photoluminescence quantum yield (in C1CCCCC1): 0.017
photoluminescence quantum yield (in C1CCOC1): 0.042
photoluminescence quantum yield (in C1COCCO1): 0.031
photoluminescence quantum yield (in CC#N): 0.048
photoluminescence quantum yield (in CC(C)O): 0.024
photoluminescence quantum yield (in CCCCCC): 0.016
photoluminescence quantum yield (in CCCCCCC): 0.017
photoluminescence quantum yield (in CCCCO): 0.026
photoluminescence quantum yield (in CCO): 0.032
photoluminescence quantum yield (in CCOC(C)=O): 0.03
photoluminescence quantum yield (in CCOCC): 0.022
photoluminescence quantum yield (in CN(C)C=O): 0.051
photoluminescence quantum yield (in CO): 0.019
photoluminescence quantum yield (in CS(C)=O): 0.054
photoluminescence quantum yield (in O): 0.015

c1ccc(-c2cc(-c3nnc(-c4ccc(N5c6ccccc6Oc6ccccc65)cc4)o3)c(-c3ccccc3)c(-c3ccccc3)c2-c2ccccc2)cc1
photoluminescence quantum yield (in Cc1ccccc1): 0.264
photoluminescence quantum yield (in c1ccc(-n2c(-c3c(-n4c5ccccc5c5ccccc54)cccc3-n3c4ccccc4c4ccccc43)nc3ccccc32)cc1): 0.93

COc1ccc(/C=C/C2=CC(/C=C/c3ccc(OC)cc3)=[N+]3C2=C(c2ccc(-c4ccc5ccccc5n4)s2)c2c(/C=C/c4ccc(OC)cc4)cc(/C=C/c4ccc(OC)cc4)n2[B-]3(F)F)cc1
photoluminescence quantum yield (in C1COCCO1): 0.36

F[B-]1(F)n2c(c3cccc4cccc2c43)=Nc2cccc[n+]21
photoluminescence quantum yield (in C1CCOC1): 0.99
photoluminescence quantum yield (in CC#N): 0.99
photoluminescence quantum yield (in CCCCCC): 0.99
photoluminescence quantum yield (in Cc1ccccc1): 0.99
photoluminescence quantum yield (in ClCCl): 0.99

CCCCCCOc1ccc2ccc3oc(=O)cc4cc(OCCCCCC)c1c2c43
photoluminescence quantum yield (in CC1CCCO1): 0.83

CCCCCCCN1C(=CC2=C([O-])C(=CC3=[N+](CCCCCCC)c4ccccc4C3(C)C)C2=C(C#N)C#N)Sc2ccccc21
photoluminescence quantum yield (in C1COCCO1): 0.16
photoluminescence quantum yield (in CCO): 0.15
photoluminescence quantum yield (in CN(C)C=O): 0.16
photoluminescence quantum yield (in ClC(Cl)Cl): 0.17

Cc1nc2c(ccc3c2sc(/C=C/C=C/c2ccc(N(C)C)cc2)[n+]3C)s1
photoluminescence quantum yield (in CO): 0.032
photoluminescence quantum yield (in ClC(Cl)Cl): 0.16

c1ccc2c(c1)[nH]c1ccccc12
photoluminescence quantum yield (in CC#N): 0.62
photoluminescence quantum yield (in CCCCCC): 0.53
photoluminescence quantum yield (in CCO): 0.44

CCNc1cc2oc(=O)c3c(=O)oc4ccccc4c3c2cc1C
photoluminescence quantum yield (in CS(C)=O): 0.27
photoluminescence quantum yield (in ClCCl): 0.84

COC(=O)c1cccc2c1C#Cc1c(N)cccc1OCCCO2
photoluminescence quantum yield (in CC#N): 0.03
photoluminescence quantum yield (in ClCCl): 0.14

Cc1c2c(c(C)c3ccccc13)-c1cc3nc4ccccc4nc3cc1-2
photoluminescence quantum yield (in ClC(Cl)Cl): 0.72

Cc1cc(-c2nc(-c3ccccc3)nc(-c3ccccc3)n2)ccc1-c1ccc2c(c1)C1(c3ccccc3-c3ccccc31)c1ccccc1N2c1ccccc1
photoluminescence quantum yield (in c1cc(-c2cccc(-n3c4ccccc4c4ccccc43)c2)cc(-n2c3ccccc3c3ccccc32)c1): 1

COc1ccc2c(c1)cc(C)c1c3ccccc3[nH]c21
photoluminescence quantum yield (in ClCCl): 0.109

O=C(c1ccc2c3c(cccc13)-c1cccc3c1C2CC=C3)c1c(CCc2ccccc2)c2ccc3cccc4c5cccc6ccc1c(c65)c2c34 (centres undefined)
photoluminescence quantum yield (in ClCCl): 0.17

CC1(C)c2ccccc2N(c2ccc(-c3nc(-c4ccccc4)cc(-c4ccccc4)n3)cc2)c2ccccc21
photoluminescence quantum yield (in CC#N): 0.018
photoluminescence quantum yield (in Cc1ccccc1): 0.339
photoluminescence quantum yield (in ClCCl): 0.632
photoluminescence quantum yield [1]: 0.61

F[B-]1(F)n2c(c(-c3ccccc3)c(-c3ccccc3)c2-c2ccccc2)C(c2ccccc2)=C2C(c3ccccc3)=C(c3ccccc3)C(c3ccccc3)=[N+]21
photoluminescence quantum yield (in C1CCOC1): 0.2

CCCC1=C(CCC)c2cccc3c2c(cc2nc4ccccc4nc23)O1
photoluminescence quantum yield (in ClCCl): 0.52

COc1ccc(N(c2ccc(OC)cc2)c2ccc(-c3ccc(-c4ccc(-c5cccs5)c5nsnc45)s3)cc2)cc1
photoluminescence quantum yield (in ClC(Cl)Cl): 0.28

c1ccc(-c2ccc(-c3nc(-c4ccccc4)c(N(c4ccccc4)c4ccccc4)[se]3)cc2)cc1
photoluminescence quantum yield (in ClC(Cl)Cl): 0.159

C[Si](C)(C)c1cccc2ccccc12
photoluminescence quantum yield (in C1CCCCC1): 0.3

N#Cc1ccc(N2c3ccccc3C(c3ccccc3)(c3ccccc3)c3ccccc32)cc1
photoluminescence quantum yield (in Cc1ccccc1): 0.22

CCN(CC)c1ccc2c(c1)oc(=O)c1c(C)nc3c(c(-c4ccccc4)nn3C)c12
photoluminescence quantum yield (in C1CCCCC1): 0.699
photoluminescence quantum yield (in CCOC(C)=O): 0.627
photoluminescence quantum yield (in CN(C)C=O): 0.483
photoluminescence quantum yield (in CO): 0.43
photoluminescence quantum yield (in ClCCl): 0.673

CCOC(=O)c1cc(C(=O)OCC)c2cc(O)ccc2n1
photoluminescence quantum yield (in CCO): 0.16

COc1ccc(-n2nc(C(=O)c3ccc(Cl)cc3)c(N3CCCC3)n2)cc1
photoluminescence quantum yield (in CC#N): 0.004

CC1(C)c2ccccc2N(c2ccccc2)c2ccc(-c3ccc(S(=O)(=O)c4ccc(-c5ccc6c(c5)C(C)(C)c5ccccc5N6c5ccccc5)cc4)cc3)cc21
photoluminescence quantum yield [1]: 0.87

F[B-]1(F)Oc2ccccc2-c2cnc3ccccc3[n+]21
photoluminescence quantum yield (in Cc1ccccc1): 0.086

CC[Si](C#Cc1c2c(=O)c3ccccc3c2c(C#C[Si](CC)(CC)CC)c2c(=O)c3ccccc3c12)(CC)CC
photoluminescence quantum yield (in ClC(Cl)Cl): 0.08

N#Cc1cc(C#Cc2c(F)c(F)nc(F)c2F)c(C#Cc2c(F)c(F)nc(F)c2F)cc1C#N
photoluminescence quantum yield (in CC#N): 0.49

COc1ccc(-c2oc3cccc4c5c(-c6ccc(OC)c(OC)c6)/c(=N/S(=O)(=O)C(F)(F)F)oc6cccc(c2c34)c65)cc1OC
photoluminescence quantum yield (in ClC(Cl)Cl): 0.1

N#CC1=CC(C#Cc2ccccc2)=CC(C#N)=P1(c1ccccc1)c1ccccc1
photoluminescence quantum yield (in ClC(Cl)Cl): 0.61

CCCCCCn1c2cc(/C=C/c3ccccc3)ccc2c2ccc(/C=C/c3ccccc3)cc21
photoluminescence quantum yield (in ClC(Cl)Cl): 0.91

FC(F)(F)c1ccc2oc3nc4oc5ccc(-n6c7ccccc7c7ccccc76)cc5c4cc3c2c1
photoluminescence quantum yield (in ClC(Cl)Cl): 0.074

c1ccc(N(c2ccccc2)c2cc3c4c(c2)N(c2ccccc2)c2cc5c(cc2B4c2ccccc2N3c2ccccc2)B2c3ccccc3N(c3ccccc3)c3cc(N(c4ccccc4)c4ccccc4)cc(c32)N5c2ccccc2)cc1
photoluminescence quantum yield (in Cc1ccccc1): 0.74
photoluminescence quantum yield (in Cc1ccccc1-c1cccc(Oc2cc3c4c(c2)Oc2cc(-c5ccccc5C)ccc2B4c2ccc(-c4ccccc4C)cc2O3)c1): 0.82

CCCCCCCCCCCCOc1cc2c(cc1OCCCCCCCCCCCC)C1=C3C(=O)N4C=Cc5cc(OCCCCCCCCCCCC)c(OCCCCCCCCCCCC)cc5C4=C3C(=O)N1C=C2
photoluminescence quantum yield (in CN(C)C=O): 0.7
photoluminescence quantum yield (in ClC(Cl)Cl): 0.8

C(=C\c1ccc(-c2ccc(/C=C/c3ccc(-n4c5ccccc5c5ccccc54)cc3)s2)s1)/c1ccc(-n2c3ccccc3c3ccccc32)cc1
photoluminescence quantum yield (in C1CCOC1): 0.1
photoluminescence quantum yield (in CC#N): 0.09
photoluminescence quantum yield (in CC(C)=O): 0.09
photoluminescence quantum yield (in CN(C)C=O): 0.11
photoluminescence quantum yield (in Cc1ccccc1): 0.11
